Converted amounts (≈) assume the structure as drawn.
Tests used:
[1] = tested on: Haemophilus influenzae (HINF 30063); experiment: MIC, standard agar dilution method; assay type: cell-based; settings: Table II, Mueller Hinton agar, incubated overnight at 35° C.; for MIC: Haemophilus influenzae
Description: (§1) MIC Test Method The in vitro MICs of test compounds were determined by a standard agar dilution method. […] Serial 2-fold dilutions of each sample are made using 1.0 ml aliquots of sterile distilled water. To each 1.0 ml aliquot of drug is added 9 ml of molten Mueller Hinton agar medium. The drug-supplemented agar is mixed, poured into 15×100 mm petri dishes, and allowed to solidify and dry prior to inoculation. Vials of each of the test organisms are maintained frozen in the vapor phase of a liquid nitrogen freezer. Test cultures are grown overnight at 35° C. on the medium appropriate for the organism. Colonies are harvested with a sterile swab, and cell suspensions are prepared in Trypticase Soy broth (TSB) to equal the turbidity of a 0.5 McFarland standard. A 1:20 dilution of each suspension is made in TSB. […] The plates are incubated overnight at 35° C. Following incubation the Minimum Inhibitory Concentration (MIC μg/ml), the lowest concentration of drug that inhibits visible growth of the organism, is read and recorded.

[2] = tested on: S. epidermidis (SEPI 30593); experiment: MIC, standard agar dilution method; assay type: cell-based; settings: Table II, Mueller Hinton agar, incubated overnight at 35° C.; for MIC: Staphylococcus epidermidis
Description: as §1

[3] = tested on: S. pneumoniae (SPNE 9912); experiment: MIC, standard agar dilution method; assay type: cell-based; settings: Table II, Mueller Hinton agar, incubated overnight at 35° C.; for MIC: Streptococcus pneumoniae, read-out: SPNE 9912 MIC
Description: as §1

[4] = tested on: Moraxella catarrhalis (MCAT 30610); experiment: MIC, standard agar dilution method; assay type: cell-based; settings: Table II, Mueller Hinton agar, incubated overnight at 35° C.; for MIC: Moraxella catarrhalis
Description: as §1

E. Faecium (EFAE 12712) = experiment: MIC, standard agar dilution method; assay type: cell-based; settings: Table II, key: E. Faecium, agar dilution, Mueller Hinton agar, incubated overnight at 35° C.; for MIC: Enterococcus faecium, read-out: EFAE 12712 MIC
Description: as §1

S. aureus (SAUR 9213) = experiment: MIC, standard agar dilution method; assay type: cell-based; settings: Table II, Mueller Hinton agar, incubated overnight at 35° C.; for MIC: Staphylococcus aureus, read-out: SAUR 9213 MIC
Description: as §1

[5] = tested on: Enterococcus faecalis (EFAE 9217); experiment: MIC, standard agar dilution method; assay type: cell-based; settings: Table II, key: Enterococcus faecalis, Mueller Hinton agar, incubated overnight at 35° C.; for MIC: read-out: EFAE 9217 MIC
Description: as §1

S. pyogenes (SPYO 152) = experiment: MIC, standard agar dilution method; assay type: cell-based; settings: Table II, Mueller Hinton agar, incubated overnight at 35° C.; for MIC: Streptococcus pyogenes, read-out: SPYO 152 MIC
Description: as §1

HINF 30063 MIC [1] [µg/mL] | SEPI 30593 MIC [2] [µg/mL] | SPNE 9912 MIC [3] [µg/mL] | MCAT 30610 MIC [4] [µg/mL] | EFAE 12712 MIC (E. Faecium (EFAE 12712)) [µg/mL] | SAUR 9213 MIC (S. aureus (SAUR 9213)) [µg/mL] | EFAE 9217 MIC [5] [µg/mL] | SPYO 152 MIC (S. pyogenes (SPYO 152)) [µg/mL] | melting point [°C] | MIC [1] [µg/mL] | MIC [2] [µg/mL] | MIC [3] [µg/mL] | MIC [4] [µg/mL] | MIC (E. Faecium (EFAE 12712)) [µg/mL] | MIC (S. aureus (SAUR 9213)) [µg/mL] | MIC [5] [µg/mL] | MIC (S. pyogenes (SPYO 152)) [µg/mL] | SMILES
2 | 0.25 | 0.25 | 1 | 0.5 | 0.5 | 0.5 | 0.25 |  |  |  |  |  |  |  |  |  | CC(=S)NC[C@H]1CN(c2ccc(N3CCS(=O)(=O)CC3)c(F)c2)C(=O)O1 [Example 28, (S)-N-[[3-[3-Fluoro-4-(4-thiomorpholinyl)phenyl]-2-oxo-5-oxazolidinyl]methyl]thio-acetamide, thiomorpholine S, S-dioxide]
 |  |  |  |  |  |  |  |  | > 64 | 16 (≈ 41.3 µM) | 4 (≈ 10.3 µM) | 64 (≈ 165 µM) | 32 (≈ 82.5 µM) | 32 (≈ 82.5 µM) | 32 (≈ 82.5 µM) | 8 (≈ 20.6 µM) | O=C1O[C@@H](CNC(=S)CCl)CN1c1ccc(N2CCOCC2)c(F)c1 [Example 15, (S)-N-[[3-[3-Fluoro-4-(4-morpholinyl)phenyl]-2-oxo-5-oxrazolidinyl]methyl]-2-chlorotlioacetamide]
64 | 16 | 16 | 32 | 32 | 32 | 32 | 16 |  |  |  |  |  |  |  |  |  | N#CCC(=S)NC[C@H]1CN(c2ccc(N3CCOCC3)c(F)c2)C(=O)O1 [Example 19, (S)-N-[[3-[3-Fluoro-4-(4-morpholinyl)phenyl]-2-oxo-5-10 oxazolidinyl]methyl]-α-eyanothioacetamnide]

Continued, compound first:

SMILES | HINF 30063 MIC [1] [µg/mL] | SEPI 30593 MIC [2] [µg/mL] | SPNE 9912 MIC [3] [µg/mL] | MCAT 30610 MIC [4] [µg/mL] | EFAE 12712 MIC (E. Faecium (EFAE 12712)) [µg/mL] | SAUR 9213 MIC (S. aureus (SAUR 9213)) [µg/mL] | EFAE 9217 MIC [5] [µg/mL] | SPYO 152 MIC (S. pyogenes (SPYO 152)) [µg/mL] | melting point [°C] | MIC [1] [µg/mL] | MIC [2] [µg/mL] | MIC [3] [µg/mL] | MIC [4] [µg/mL] | MIC (E. Faecium (EFAE 12712)) [µg/mL] | MIC (S. aureus (SAUR 9213)) [µg/mL] | MIC [5] [µg/mL] | MIC (S. pyogenes (SPYO 152)) [µg/mL]
COC(=S)NC[C@H]1CN(c2ccc(N3CCOCC3)c(F)c2)C(=O)O1 [Example 35] | 16 | 0.5 | 0.25 | 2 | 1 | 1 | 1 | 0.5 |  |  |  |  |  |  |  |  | 
COC(=S)NC[C@H]1CN(c2ccc(N3CC[S+]([O-])CC3)c(F)c2)C(=O)O1 [Example 100, (S)-N-[[3-[3-Fluoro-4-(4-thiomorpholinyl)phenyl]-2-oxo-5-oxazolidinyl]methyl]-O-methylthiocarbamate, thiomorpholine S-oxide] |  |  |  |  |  |  |  |  | 208 to 209 |  |  |  |  |  |  |  | 
CC(=S)NC[C@H]1CN(c2ccc(-n3cncn3)c(F)c2)C(=O)O1 [Example 22] |  |  |  |  |  |  |  |  |  | 4 (≈ 11.9 µM) | 0.5 (≈ 1.49 µM) | < 0.125 | 2 (≈ 5.96 µM) | 1 (≈ 2.98 µM) | 0.5 (≈ 1.49 µM) | 1 (≈ 2.98 µM) | 0.25 (≈ 0.745 µM)
NC(=S)NC[C@H]1CN(c2ccc([C@H]3CC[S@@+]([O-])CC3)c(F)c2)C(=O)O1 [Example 8, (S)-cis-[[3-[3-Fluoro-4-(tetrahydro-1-oxido-2H-thiopyran-4-yl)phenyl]-2-oxo-5-oxazolidinyl]methyl]thiourea] |  |  |  |  |  |  |  |  |  | 4 (≈ 10.4 µM) | 1 (≈ 2.59 µM) | < 0.125 | 2 (≈ 5.19 µM) | 0.5 (≈ 1.3 µM) | 2 (≈ 5.19 µM) | 1 (≈ 2.59 µM) | 0.25 (≈ 0.649 µM)
NC(=S)NC[C@H]1CN(c2ccc(C3CC[S+]([O-])CC3)c(F)c2)C(=O)O1 (stereo partly drawn) [Example 10, (S)-trans-[[3-[3-Fluoro-4-(tetrahydro-1-oxido-2H-thiopyran4-yl)phenyl]-2-oxo-5-oxazolidinyl]methyl]thiourea] |  |  |  |  |  |  |  |  |  | 2 (≈ 5.19 µM) | 1 (≈ 2.59 µM) | < 0.125 | 1 (≈ 2.59 µM) | 0.5 (≈ 1.3 µM) | 2 (≈ 5.19 µM) | 1 (≈ 2.59 µM) | 0.25 (≈ 0.649 µM)
CC(=S)NC[C@H]1CN(c2ccc([C@H]3CC[S@+]([O-])CC3)c(F)c2)C(=O)O1 [Example 9, (S)-trans-N-[[3-[3-Fluoro-4-(tetrahydro-1-oxido-2H-thiopyran-4-yl)phenyl]-2-oxo-5-oxazolidinyl]methyl]ethanethioamide] |  |  |  |  |  |  |  |  |  | 2 (≈ 5.2 µM) | 0.25 (≈ 0.65 µM) | < 0.125 | 0.5 (≈ 1.3 µM) | 0.25 (≈ 0.65 µM) | 0.5 (≈ 1.3 µM) | 0.25 (≈ 0.65 µM) | < 0.125
